Source: patent US4810705A, “Triazolo [3,4-b]pyridazines, process for their preparation and pharmaceutical compositions containing them” (priority 1984, dated 1989)
Read-outs that look alike come from different tables or passages of the source.

Experiments:
[1] = tested on: myorelaxation induced by diazepam; assay: Antagonism of diazepam myorelaxation, traction test in mice; assay type: in vivo; settings: 15 min before diazepam 3 mg/kg i.p., test 60 min after product; for ED50: Mus musculus, 1 h, read-out: Antagonism of the myorelaxation, 50% effective dose (ED50)
Method: (a) Myorelaxant properties.
The studies were carried out by means of the traction test (J. R. Boissier et al., Archives Internationales de Pharmacodynamie, 1961, 135, pages 29-49). This test determines the ability of mice, placed with the front paws on a horizontally stretched wire, to grip with the back paws. The animals which have not brought the back paws onto the wire in less than 5 seconds are considered to be in a state of myorelaxation.
The products are administered 15 minutes before the intraperitoneal injection of a dose of 3 mg/kg of diazepam and the test is performed 60 minutes after administration of the product to be studied. The study was carried out on groups of 10 mice per dose.

benzodiazepine receptor = assay: Displacement of tritiated flunitrazepam from the benzodiazepine receptor (synaptic preparations of rat brain); assay type: binding; settings: tritiated flunitrazepam (60 Ci/mM), 1.1 nM final, read-out: median effective concentration (IC50)
Method: ABILITY OF THE DERIVATIVES TO DISPLACE TRITIATED FLUNITRAZEPAM FROM THE BENZODIAZEPINE RECEPTOR
The studies were carried out on synaptic preparations of rat brain in accordance with the method described by Squives and Braestrup (Nature, 1977, 266, pages 732 to 734) and Mohler and Okada (Science, 1977, 198, pages 849 to 851).
The tritiated flunitrazepam (60 Ci/mM) was used at a final concentration of 1.1 nM. The results obtained with various products of the invention are shown in Table III and are expressed as median effective concentration (IC50) in μM.

[2] = Acute oral toxicity in female Charles River CD1 mice; settings: mouse, in vivo, read-out: % toxicity (percentage of dead animals)
Method: Finally, the products of the invention were studied for their toxicity.
The studies were carried out on groups of 5 female Charles River mice of the CD1 strain, weighing between 20 and 24 g. The products were administered orally, diluted in 5% gum arabic. The acute toxicity was recorded during the 72 hours following administration of the product.
The results below (percentage of dead animals) were obtained as a function of the dose administered.

[3] = tested on: anxiolytic effect of diazepam; assay: Antagonism of anxiolytic effect of diazepam, approach-avoidance conflict test in rats; assay type: in vivo; settings: 60 min before diazepam 4 mg/kg i.p.
Method: The studies were carried out on rats in the approach-avoidance conflict test (L. Cook and A. B. Davidson, Effects of behaviorally active drugs in a conflict-punishment procedure in rats. In: The Benzodiazepines, S. Garattini, E. Mussini and L. O. Randall, editors, Raven Press, New York, 1973, 327-345).
A representative product of the invention, SR 95 195, was administered intraperitoneally 60 minutes before an anxiolytic dose of diazepam (4 mg/kg i.p.). The test was performed 30 minutes after administration of the diazepam.

food intake = assay: Food intake of fasted rats; assay type: in vivo; settings: 40 mg/kg orally, first hour
Method: Furthermore, the products according to the invention were studied for their ability to reduce the food intake of fasted rats.
The studies were carried out on isolated female rats (200 to 240 g) trained to consume their food during a period of 4 hours per day. On the day of the test, 60 minutes before the food is provided, the animals receive either the product to be studied or the vehicle of administration. The quantity of food ingested during the first hour is determined.
The values shown in the table are the mean values for groups of 6 rats.

SMILES: Cc1nnc2cc(-c3cccc(Cl)c3)cnn12 [SR 95 398]
- ED50 [1]: 20 mg/kg
- IC50 (benzodiazepine receptor): 0.0026 mM
- mortality at 72 h ([2]; 250 mg/kg orally): 0%
- mortality at 72 h ([2]; 500 mg/kg orally): 0%

SMILES: c1ccc(-c2cnn3c(-c4ccccc4)nnc3c2)cc1 [SR 95 494]
- IC50 (benzodiazepine receptor): 0.05 mM
- mortality at 72 h ([2]; 250 mg/kg orally): 0%
- mortality at 72 h ([2]; 500 mg/kg orally): 0%

SMILES: Cc1nnc2cc(CCc3ccccc3)cnn12 [SR 95 410]
- mortality at 72 h ([2]; 250 mg/kg orally): 0%
- mortality at 72 h ([2]; 500 mg/kg orally): 0%
- mortality at 72 h ([2]; 1000 mg/kg orally): 0%

SMILES: c1ccc(-c2cnn3cnnc3c2)cc1 [SR 95 194, 7-Phenyl-1,2,4-triazolo[4,3-b]pyridazine]
- IC50 (benzodiazepine receptor): 0.049 mM
- mortality at 72 h ([2]; 250 mg/kg orally): 0%
- mortality at 72 h ([2]; 500 mg/kg orally): 0%
- mortality at 72 h ([2]; 1000 mg/kg orally): 100%

SMILES: c1ccc(Cc2nnc3cc(-c4ccccc4)cnn23)cc1 [SR 95 491, 7-Phenyl-3-benzyl-1,2,4-triazolo[4,3-b]pyridazine]
- IC50 (benzodiazepine receptor): 0.0045 mM

SMILES: Cc1nnc2cc(-c3ccccc3)cnn12 [SR 95 195]
- ED50 [1]: 26 mg/kg
- % antagonism (anxiolytic effect of diazepam) ([3]; 1.25 mg/kg i.p.): 26%
- % antagonism (anxiolytic effect of diazepam) ([3]; 6.25 mg/kg i.p.): 74%
- % antagonism (anxiolytic effect of diazepam) ([3]; 25 mg/kg i.p.): 100%
- IC50 (benzodiazepine receptor): 0.009 mM
- mortality at 72 h ([2]; 250 mg/kg orally): 0%
- mortality at 72 h ([2]; 500 mg/kg orally): 0%
- mortality at 72 h ([2]; 1000 mg/kg orally): 80%
- Food intake (food intake; 60 min before food, fasted female rats, mean, groups of 6): 8.6 ± 1.5 g
- Food intake, % variation relative to the control animals (food intake; p < 0.01, Student's test): -51%

SMILES: COc1ccc(-c2cnn3c(C)nnc3c2)cc1 [SR 95 287, 7-(4-Methoxyphenyl)-3-methyl-1,2,4-triazolo[4,3-b]pyridazine]
- mortality at 72 h ([2]; 250 mg/kg orally): 0%
- mortality at 72 h ([2]; 500 mg/kg orally): 0%
- mortality at 72 h ([2]; 1000 mg/kg orally): 0%

SMILES: Cc1nnc2cc(-c3cccc(C(F)(F)F)c3)cnn12 [SR 95 533]
- Antagonism of the myorelaxation, effect (dose) ([1]; at 100 mg/kg): 100%
- IC50 (benzodiazepine receptor): 0.0029 mM

SMILES: Cc1nnc2cc(-c3ccccc3Cl)cnn12 [SR 95 437]
- mortality at 72 h ([2]; 250 mg/kg orally): 0%
- mortality at 72 h ([2]; 500 mg/kg orally): 0%

SMILES: Cc1nnc2cc(-c3ccc(Cl)cc3)cnn12 [SR 95 369]
- mortality at 72 h ([2]; 250 mg/kg orally): 0%
- mortality at 72 h ([2]; 500 mg/kg orally): 100%
- mortality at 72 h ([2]; 1000 mg/kg orally): 100%

SMILES: Cc1nnc2cc(Cc3ccccc3)cnn12 [SR 95 252]
- IC50 (benzodiazepine receptor): 0.027 mM
- mortality at 72 h ([2]; 250 mg/kg orally): 0%
- mortality at 72 h ([2]; 500 mg/kg orally): 0%
- mortality at 72 h ([2]; 1000 mg/kg orally): 100%

SMILES: Cc1ccc(-c2cnn3c(C)nnc3c2)cc1 [SR 95 370]
- mortality at 72 h ([2]; 250 mg/kg orally): 40%
- mortality at 72 h ([2]; 500 mg/kg orally): 100%
- mortality at 72 h ([2]; 1000 mg/kg orally): 100%

SMILES: Clc1ccc(-c2nnc3cc(-c4ccccc4)cnn23)cc1 [SR 95 492]
- mortality at 72 h ([2]; 250 mg/kg orally): 0%
- mortality at 72 h ([2]; 500 mg/kg orally): 0%
